Results reported in patent publication EP3057949B1, “SECONDARY ALCOHOL QUINOLINYL MODULATORS OF ROR GAMMA T” (Janssen Pharmaceutica NV, priority 2013, dated 2015).
Structures can show the parent of a compound that is named as a salt.

Assays:
[1] = biological target: T1, human RORγt ligand binding domain (RORγt LBD) (Homo sapiens, UniProt P51449); assay: ThermoFluor® Assay (RORγt thermal shift binding); conditions: 0.065 mg/mL RORγt, 60 µM 1,8-ANS, pH 7.0; estimated from concentration response curves
T1 construct: His-tag (N); TurboTEV protease cleavage site (ENLYFQG) (N); made in house; host or cells: E. coli (pHIS1, modified pET vector)
T1 sequence (P51449 258-518): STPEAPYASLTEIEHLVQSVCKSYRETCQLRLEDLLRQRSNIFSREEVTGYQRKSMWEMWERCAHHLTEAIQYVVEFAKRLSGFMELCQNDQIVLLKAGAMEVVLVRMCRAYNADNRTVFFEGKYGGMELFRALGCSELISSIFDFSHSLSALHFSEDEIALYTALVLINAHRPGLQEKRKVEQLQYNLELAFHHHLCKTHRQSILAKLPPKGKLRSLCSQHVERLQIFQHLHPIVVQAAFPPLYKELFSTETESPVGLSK
Description: This approach is applicable to a wide variety of systems, and rigorous in theoretical interpretation through quantitation of equilibrium binding constants (KD).
The shift in the melting point described as a ΔTm is proportional to the concentration and affinity of the ligand. The compound potency may be compared as a rank order of either ATm values at a single compound concentration or in terms of KD values, estimated from concentration response curves.
ThermoFluor® experiments were carried out using instruments owned by Janssen Research and Discovery, L.L.C. through its acquisition of 3-Dimensional Pharmaceuticals, Inc. 1,8-ANS (Invitrogen) was used as a fluorescent dye. Protein and compound solutions are dispensed into black 384-well polypropylene PCR microplates (Abgene) and overlayed with silicone oil (1 µL, Fluka, type DC 200) to prevent evaporation.
Bar-coded assay plates are robotically loaded onto a thermostatically controlled PCR-type thermal block and then heated at a typical ramp-rate of 1 °C/minute for all experiments. Fluorescence was measured by continuous illumination with UV light (Hamamatsu LC6) supplied via fiber optic and filtered through a band-pass filter (380-400 nm; >6 OD cutoff). Fluorescence emission of the entire 384-well plate was detected by measuring light intensity using a CCD camera (Sensys, Roper Scientific) filtered to detect 500 ± 25 nm, resulting in simultaneous and independent readings of all 384 wells. Images were collected at each temperature, and the sum of the pixel intensity in a given area of the assay plate was recorded versus temperature. Reference wells contained RORyt without compounds, and the assay conditions were as follows: • 0.065 mg/mL RORγt • 60 µM 1,8-ANS • 100 mM Hepes, pH 7.0 • 10 mM NaCl • 2.5 mM GSH • 0.002% Tween-20
Project compounds were arranged in a pre-dosed mother plate (Greiner Bio-one) wherein compounds are serially diluted in 100% DMSO by 1:2 from a high concentration of 10 mM over 12 columns within a series (column 12 is a reference well containing DMSO, no compound). The compounds were robotically dispensed directly into assay plates (1x = 46 nL) using a Hummingbird capillary liquid handling instrument (Digilab). Following compound dispense, protein and dye in buffer was added to achieve the final assay volume of 3 µL, followed by 1 µL of silicone oil.

full-length human RORγt = biological target: T2, full-length human RORγt (Homo sapiens, UniProt P51449); assay: RORγt (full-length human) Reporter Assay (GAL4 luciferase, HEK293T cells); type: cell-based; conditions: for IC50: overnight (16 to 20 hours) incubation, read-out: RORγt (FL) Reporter Assay, IC50; for inhibition at 0.67 µM / inhibition at 2 µM: HEK-293T; for inhibition at 0.67 µM: 0.67 µM compound concentration (footnote *), read-out: RORγt (FL) Reporter Assay, % inhibition (values marked *); for inhibition at 2 µM: read-out: RORγt (FL) Reporter Assay, % inhibition @ 2 µM
T2 construct: expressed in transfected cells; host or cells: HEK293T
T2 sequence (P51449 1-497 isoform P51449-2): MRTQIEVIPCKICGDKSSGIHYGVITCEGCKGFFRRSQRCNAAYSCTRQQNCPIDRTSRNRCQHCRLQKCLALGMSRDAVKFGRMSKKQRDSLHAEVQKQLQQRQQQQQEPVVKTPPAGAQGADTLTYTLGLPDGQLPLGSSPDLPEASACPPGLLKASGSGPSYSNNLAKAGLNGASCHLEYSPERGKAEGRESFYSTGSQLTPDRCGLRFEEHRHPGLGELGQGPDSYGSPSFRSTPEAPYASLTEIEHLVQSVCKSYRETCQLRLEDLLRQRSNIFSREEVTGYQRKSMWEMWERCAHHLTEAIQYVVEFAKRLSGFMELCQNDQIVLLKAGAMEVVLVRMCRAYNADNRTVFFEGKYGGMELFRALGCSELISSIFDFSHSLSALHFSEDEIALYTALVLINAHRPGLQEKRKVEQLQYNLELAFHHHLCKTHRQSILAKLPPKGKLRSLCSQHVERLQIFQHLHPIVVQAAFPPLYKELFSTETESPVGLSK
Description: (§1) Compounds were assessed for RORgt functional modulation using either the RORgt ligand binding domain (LBD) reporter assay, or the RORgt full-length (FL) reporter assay.
A reporter assay was used to test functional activity of RORγt modulatory compounds on transcriptional activation driven by full-length human RORγt. Cells used in this assay were transiently co-transfected with three different plasmids, one expressing the GAL4-DNA binding domain (DBD)-RORγt fusion protein under control of a CMV promoter (NH2-Gal4-DBD:RORC-COOH in pCMV-BD, Stratagene #211342), and two reporter plasmids - the firefly luciferase reporter under control of a GAL4 promoter (pFR-Luc 2x GAL4) and Renilla luciferase reporter under control of CMV promoter (pRL-CMV, Promega #E2261). The full-length coding sequence was used for human RORγt, i.e., nucleotides 142-1635 of human RORγt, transcript variant 2, NCBI Accession: NM_001001523.1 (SEQ ID NO:1). HEK293T cells were plated at 35000 per well in 96-well plate in medium of MEM with 8.6% FBS. After 18-22 hours incubation, the transfection was carried out by using a PEI solution with 170.5 ng total DNA/well (50 ng pCMV-BD-ROR plus 20 ng of pFR-Luc reporter and 0.5 ng of pRL-CMV reporter plus 100 ng Carrier DNA (Clontech # 630440) for each well). 4-6 hours after transfection, cells were treated with compounds for overnight in the medium with final concentration of FBS 1.1% and DMSO 0.1%. After overnight (16 to 20 hours) incubation, media were removed and cells were lysed with 20 µL 1x Passive Lysis Buffer (Promega) for 10-15 minutes. Luminescence was measured using a BMG LUMIstar OPTIMA plate reader, after addition of 75 µL/well firefly luciferase buffer, followed by 75 µL/well Renilla luciferase buffer. To calculate the effect of compounds on RORγt activity, firefly values were normalized against values of DMSO only and values of reference compound at saturating concentration, then further normalized against Renilla signals. IC50s were generated by plotting final Renilla normalized data against compound concentration and percent inhibition was calculated against DMSO control.

human RORγt LBD = biological target: T3, human RORγt LBD (Homo sapiens, UniProt P51449); assay: RORγt (LBD) Reporter Assay (GAL4 luciferase, HEK293T cells); type: cell-based; conditions: for inhibition at 6 µM: HEK-293T, 6 µM compound; for IC50: compounds for 24 hours
T3 construct: expressed in transfected cells; host or cells: HEK293T
T3 sequence (P51449 258-518): T1 sequence (P51449 258-518)
Description: as §1
A reporter assay was used to test functional activity of RORγt modulatory compounds on transcriptional activation driven by the RORγt LBD. Cells used in the assay were co-transfected with two constructs. The first construct, pBIND-RORγt LBD, contained the wild type human RORγt LBD fused to the DNA binding domain of the GAL4 protein. The second construct, pGL4.31 (Promega Cat no. C935A), contained multiple GAL4 responsive DNA elements upstream of firefly luciferase. […] The mutant construct was called pBIND-RORγt-AF2.
The pBIND vector contains the GAL4 DNA Binding Domain (GAL4 DBD) and the renilla luciferase gene under control of the SV40 promoter. Renilla luciferase expression serves as a control for transfection efficiency and cell viability.
The reporter assay was performed by transiently transfecting HEK293T cells with 5 µg of pBIND-RORγt LBD or pBIND-RORγt LBD-AF2 and 5 µg pGL4.31 (Promega Cat no. C935A) using Fugene 6 (Invitrogen Cat no. E2691) at a 1:6 ratio of DNA: Fugene 6 in a T-75 flask in which cells were at least 80% confluent. Twenty four hours after bulk transfection, cells were plated into 96-well plates at 50,000 cells/well in phenol-red free DMEM containing 5% Lipid Reduced FCS and Pen/Strep. Six hours after plating, cells were treated with compounds for 24 hours. Media was removed and cells were lysed with 50 µL 1x Glo Lysis Buffer (Promega). Dual Glo Luciferase Reagent (50 µL/well) was then added and firefly luciferase luminescence was read on an Envision after a ten minute incubation. Finally, Stop and Glo reagent (50 µL/well) was added and renilla luciferase luminescence was read on an Envision after a ten minute incubation. To calculate the effect of compounds on RORγt activity, the ratio of firefly to renilla luciferase was determined and plotted against compound concentration. Agonist compounds increase RORγt-driven luciferase expression, and antagonist or inverse agonist compounds decrease luciferase expression.

Kd [1] [nM] | RORγt (FL) Reporter Assay, % inhibition @ 2 µM (full-length human RORγt; 2 µM compound, 2 µM) [%] | IC50 (full-length human RORγt) [nM] | inhibition at 0.67 µM (full-length human RORγt) [%] | inhibition at 2 µM (full-length human RORγt; 2 µM compound) [%] | inhibition at 6 µM (human RORγt LBD) [%] | IC50 (human RORγt LBD) [nM] | Structure (SMILES)
22 | 99 | 23 | – | – | – | – | COc1nc2ccc(C(O)c3c(C)noc3C)cc2c(Cl)c1Cc1ccc(C(F)(F)F)cc1 (single isomer, unassigned) [Example 20c, (4-Chloro-2-methoxy-3-(4-(trifluoromethyl)benzyl)quinolin-6-yl)(3,5-dimethylisoxazol-4-yl)methanol]
680 | – | 150 | 42 | – | – | – | COc1nc2ccc(C(O)c3ccc(C#N)cc3)cc2c(Cl)c1Cc1ccc(C#N)cc1 (stereo not drawn) [Example 9, 4-((4-Chloro-3-(4-cyanobenzyl)-2-methoxyquinolin-6-yl)(hydroxy)methyl)benzonitrile]
290 | – | 300 | – | 84 | – | – | COc1nc2ccc(C(O)c3c(C)noc3C)cc2c(Cl)c1Cc1ccc(C(F)(F)F)cc1 (single isomer, unassigned) [Example 20b, (4-Chloro-2-methoxy-3-(4-(trifluoromethyl)benzyl)quinolin-6-yl)(3,5-dimethylisoxazol-4-yl)methanol]
11 | – | 20 | 95 | – | – | – | COc1nc2ccc(C(O)c3c(C)nn(C)c3C)cc2c(Cl)c1Cc1ccc(C(F)(F)F)cc1 (stereo not drawn) [Example 34a, (4-Chloro-2-methoxy-3-(4-(trifluoromethyl)benzyl)quinolin-6-yl)(1,3,5-trimethyl-1H-pyrazol-4-yl)methanol]
1200 | – | – | – | – | 47 | > 6000 | OC(c1ccncc1)c1ccc2nc(Cl)c(-c3ccccc3)c(Cl)c2c1 (stereo not drawn) [Example 25, (2,4-Dichloro-3-phenylquinolin-6-yl)(pyridin-4-yl)methanol•TFA]
64 | – | – | – | – | 99 | 310 | COc1nc2ccc(C(O)c3cnnn3C)cc2c(Cl)c1Cc1ccc(C(F)(F)F)cc1 (stereo not drawn) [Example 17a, (4-Chloro-2-methoxy-3-(4-(trifluoromethyl)benzyl)quinolin-6-yl)(1-methyl-1H-1,2,3-triazol-5-yl)methanol]
81 | – | – | – | – | 92 | 250 | Cc1ncc(C(O)c2ccc3nc(N4CCC4)c(Cc4ccc(C(F)(F)F)cc4)c(Cl)c3c2)n1C (stereo not drawn) [Example 22a, {2-Azetidin-1-yl-4-chloro-3-[4-(trifluoromethyl)benzyl]quinolin-6-yl}(1,2-dimethyl-1H-imidazol-5-yl)methanol]
16000 | – | – | – | – | 84 | 2200 | COc1nc2ccc(C(O)C3CN(C(=O)OC(C)(C)C)C3)cc2c(Cl)c1Cc1ccc(C(F)(F)F)cc1 (stereo not drawn) [Example 32, tert-Butyl-3-((4-chloro-2-methoxy-3-(4-(trifluoromethyl)benzyl)quinolin-6-yl)(hydroxy)methyl)azetidine-1-carboxylate]
86 | – | 52 | – | 97 | – | – | COc1nc2ccc(C(O)c3c(C)noc3C)cc2c(Cl)c1Cc1ccc(C(F)(F)F)cc1 (stereo not drawn) [Example 20a, (4-Chloro-2-methoxy-3-(4-(trifluoromethyl)benzyl)quinolin-6-yl)(3,5-dimethylisoxazol-4-yl)methanol]
290 | – | – | – | – | 98 | 510 | COc1nc2ccc(C(O)c3cncn3C)cc2c(Cl)c1Cc1ccc(C(F)(F)F)cc1 (single isomer, unassigned) [Example 18b, (4-Chloro-2-methoxy-3-(4-(trifluoromethyl)benzyl)quinolin-6-yl)(1-methyl-1H-imidazol-5-yl)methanol]
74 | – | – | – | – | 101 | 43 | COc1nc2ccc(C(O)c3cnc(C)n3C)cc2c(Cl)c1Cc1ccc(C(F)(F)F)cc1 (stereo not drawn) [Example 15a, (4-Chloro-2-methoxy-3-(4-(trifluoromethyl)benzyl)quinolin-6-yl)(1,2-dimethyl-1H-imidazol-5-yl)methanol]
